Measurements from paper PMC4116524, “A virtual screen identified C96 as a novel inhibitor of phosphatidylinositol 3-kinase that displays potent preclinical activity against multiple myeloma in vitro and in vivo” (Oncotarget, 2014).

Columns and labels:
AKT2 = molecular target: T1, AKT2 (Homo sapiens, UniProt P31751); assay: Kinase activity in cell-free assay (HotSpot); type: biochemical
T1 construct: purchased Reaction Biology Corp
Description: (§1) Kinase activity in the presence of C96 was performed by using the HotSpot technology (Reaction Biology Corp., Malvern, PA, USA). Briefly, kinases (PI3Kα, β, δ, γ, AKT1, 2, 3, and mTOR) and substrates were diluted in reaction buffer. Subsequently, 5 nL of serially diluted C96 (in pure DMSO) was delivered into diluted kinase and substrate mixture by using Echo 550 (LabCyte Inc. Sunnyvale, CA). The reaction was started by adding ^33P-ATP (hot ATP) into the reaction mixture (the final concentration was 10 μM) and stopped after 2 hrs incubation at room temperature. The un-reacted hot ATP was washed away before detection.

AKT3 = molecular target: T2, AKT3 (Homo sapiens, UniProt Q9Y243); assay: Kinase activity in cell-free assay (HotSpot); type: biochemical
T2 construct: purchased Reaction Biology Corp
T2 sequence (Q9Y243 whole entry): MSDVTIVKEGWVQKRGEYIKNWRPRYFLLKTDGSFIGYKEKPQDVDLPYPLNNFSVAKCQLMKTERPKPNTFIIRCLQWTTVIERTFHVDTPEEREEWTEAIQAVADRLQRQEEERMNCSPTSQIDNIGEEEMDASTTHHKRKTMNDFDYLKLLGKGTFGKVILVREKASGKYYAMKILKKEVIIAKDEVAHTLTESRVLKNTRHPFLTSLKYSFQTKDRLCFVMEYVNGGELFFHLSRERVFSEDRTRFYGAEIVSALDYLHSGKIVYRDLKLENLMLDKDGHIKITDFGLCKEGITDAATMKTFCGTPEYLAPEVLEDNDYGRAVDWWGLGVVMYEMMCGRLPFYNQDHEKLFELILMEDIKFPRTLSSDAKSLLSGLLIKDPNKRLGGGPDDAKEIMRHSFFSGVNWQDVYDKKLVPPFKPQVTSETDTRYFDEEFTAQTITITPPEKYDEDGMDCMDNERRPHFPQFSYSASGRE
Description: as §1

PI3Kα = molecular target: T3, PI3Kα (Homo sapiens, UniProt P42336); assay: Kinase activity in cell-free assay (HotSpot); type: biochemical
T3 construct: purchased Reaction Biology Corp
T3 sequence (P42336 whole entry): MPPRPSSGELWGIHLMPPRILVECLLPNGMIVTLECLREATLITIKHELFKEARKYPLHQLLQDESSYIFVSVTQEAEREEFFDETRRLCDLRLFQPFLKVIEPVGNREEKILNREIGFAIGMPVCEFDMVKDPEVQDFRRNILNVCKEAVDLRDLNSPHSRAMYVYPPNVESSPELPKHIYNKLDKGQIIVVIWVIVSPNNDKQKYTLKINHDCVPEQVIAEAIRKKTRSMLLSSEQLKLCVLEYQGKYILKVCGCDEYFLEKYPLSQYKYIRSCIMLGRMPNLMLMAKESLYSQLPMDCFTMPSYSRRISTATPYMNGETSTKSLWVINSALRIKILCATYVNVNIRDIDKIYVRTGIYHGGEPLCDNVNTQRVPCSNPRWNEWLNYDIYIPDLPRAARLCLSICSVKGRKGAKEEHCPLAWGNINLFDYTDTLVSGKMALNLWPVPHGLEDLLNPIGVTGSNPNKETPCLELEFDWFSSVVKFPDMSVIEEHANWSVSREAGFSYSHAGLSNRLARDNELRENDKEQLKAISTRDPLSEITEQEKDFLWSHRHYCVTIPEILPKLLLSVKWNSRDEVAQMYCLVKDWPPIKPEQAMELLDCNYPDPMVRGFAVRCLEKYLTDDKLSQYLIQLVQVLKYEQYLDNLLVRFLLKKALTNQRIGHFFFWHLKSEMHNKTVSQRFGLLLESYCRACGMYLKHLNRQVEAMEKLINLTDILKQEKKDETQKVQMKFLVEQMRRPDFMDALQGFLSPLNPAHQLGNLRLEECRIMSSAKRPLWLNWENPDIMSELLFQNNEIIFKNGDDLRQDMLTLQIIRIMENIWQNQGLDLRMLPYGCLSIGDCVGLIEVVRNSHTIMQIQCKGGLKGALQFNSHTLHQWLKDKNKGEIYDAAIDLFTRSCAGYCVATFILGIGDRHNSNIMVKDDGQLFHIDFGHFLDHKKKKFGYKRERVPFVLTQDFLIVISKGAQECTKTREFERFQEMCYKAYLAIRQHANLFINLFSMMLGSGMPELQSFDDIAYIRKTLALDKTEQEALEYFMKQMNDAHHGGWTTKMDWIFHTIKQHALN
T3 sequence (P27986 whole entry partner): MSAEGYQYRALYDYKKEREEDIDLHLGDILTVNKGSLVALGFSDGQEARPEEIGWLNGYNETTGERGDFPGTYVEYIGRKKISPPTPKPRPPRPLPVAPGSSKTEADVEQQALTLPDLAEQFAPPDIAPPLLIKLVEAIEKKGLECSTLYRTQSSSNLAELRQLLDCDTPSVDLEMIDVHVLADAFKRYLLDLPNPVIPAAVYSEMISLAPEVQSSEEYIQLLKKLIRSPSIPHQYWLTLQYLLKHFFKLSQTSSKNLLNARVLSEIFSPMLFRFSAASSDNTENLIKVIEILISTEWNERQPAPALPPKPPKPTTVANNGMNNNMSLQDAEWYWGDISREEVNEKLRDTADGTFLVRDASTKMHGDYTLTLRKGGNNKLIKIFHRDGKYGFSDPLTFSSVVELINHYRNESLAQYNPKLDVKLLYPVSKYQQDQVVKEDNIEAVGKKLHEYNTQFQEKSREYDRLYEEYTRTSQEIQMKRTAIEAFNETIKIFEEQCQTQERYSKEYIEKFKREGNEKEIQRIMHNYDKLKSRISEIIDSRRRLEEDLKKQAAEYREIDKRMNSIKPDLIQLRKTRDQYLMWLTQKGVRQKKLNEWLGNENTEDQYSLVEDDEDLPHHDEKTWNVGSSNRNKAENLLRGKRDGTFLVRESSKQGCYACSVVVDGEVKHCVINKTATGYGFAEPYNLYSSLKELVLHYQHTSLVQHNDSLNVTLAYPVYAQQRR
Description: as §1

PI3Kβ = molecular target: T4, PI3Kβ (Homo sapiens, UniProt P42338); assay: Kinase activity in cell-free assay (HotSpot); type: biochemical
T4 construct: purchased Reaction Biology Corp
T4 sequence (P42338 whole entry): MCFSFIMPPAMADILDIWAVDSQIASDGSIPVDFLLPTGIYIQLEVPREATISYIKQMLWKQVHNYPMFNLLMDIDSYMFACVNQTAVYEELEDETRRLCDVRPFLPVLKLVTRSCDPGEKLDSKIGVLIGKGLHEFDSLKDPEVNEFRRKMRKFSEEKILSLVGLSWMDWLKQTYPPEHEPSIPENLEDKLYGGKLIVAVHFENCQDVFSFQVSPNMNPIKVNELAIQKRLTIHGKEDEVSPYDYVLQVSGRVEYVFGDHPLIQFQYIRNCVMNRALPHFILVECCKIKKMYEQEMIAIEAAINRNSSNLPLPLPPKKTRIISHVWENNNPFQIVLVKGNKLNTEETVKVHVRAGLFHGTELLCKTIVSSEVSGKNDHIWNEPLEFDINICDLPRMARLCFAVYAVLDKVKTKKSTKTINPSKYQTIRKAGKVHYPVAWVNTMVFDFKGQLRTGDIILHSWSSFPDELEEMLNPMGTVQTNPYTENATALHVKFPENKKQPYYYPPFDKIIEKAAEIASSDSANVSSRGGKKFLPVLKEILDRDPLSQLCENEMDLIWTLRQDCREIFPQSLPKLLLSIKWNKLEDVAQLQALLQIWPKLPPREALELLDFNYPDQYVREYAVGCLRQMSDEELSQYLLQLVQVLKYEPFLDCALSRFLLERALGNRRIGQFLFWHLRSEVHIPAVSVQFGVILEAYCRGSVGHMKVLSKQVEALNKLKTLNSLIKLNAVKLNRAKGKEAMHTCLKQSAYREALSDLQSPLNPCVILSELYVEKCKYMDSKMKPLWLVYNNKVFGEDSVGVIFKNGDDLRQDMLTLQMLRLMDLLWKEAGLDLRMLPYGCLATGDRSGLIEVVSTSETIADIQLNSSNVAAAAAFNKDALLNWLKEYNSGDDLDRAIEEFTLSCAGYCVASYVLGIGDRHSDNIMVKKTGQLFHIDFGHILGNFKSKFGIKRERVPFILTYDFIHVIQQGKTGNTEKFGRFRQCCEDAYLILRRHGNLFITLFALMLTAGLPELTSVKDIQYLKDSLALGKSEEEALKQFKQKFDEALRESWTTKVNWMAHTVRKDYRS
T4 sequence (P27986 whole entry partner): as the sequence (P27986 whole entry partner) above
Description: as §1

PI3Kδ = molecular target: T5, PI3Kδ (Homo sapiens, UniProt O00329); assay: Kinase activity in cell-free assay (HotSpot); type: biochemical
T5 construct: purchased Reaction Biology Corp
T5 sequence (O00329 whole entry): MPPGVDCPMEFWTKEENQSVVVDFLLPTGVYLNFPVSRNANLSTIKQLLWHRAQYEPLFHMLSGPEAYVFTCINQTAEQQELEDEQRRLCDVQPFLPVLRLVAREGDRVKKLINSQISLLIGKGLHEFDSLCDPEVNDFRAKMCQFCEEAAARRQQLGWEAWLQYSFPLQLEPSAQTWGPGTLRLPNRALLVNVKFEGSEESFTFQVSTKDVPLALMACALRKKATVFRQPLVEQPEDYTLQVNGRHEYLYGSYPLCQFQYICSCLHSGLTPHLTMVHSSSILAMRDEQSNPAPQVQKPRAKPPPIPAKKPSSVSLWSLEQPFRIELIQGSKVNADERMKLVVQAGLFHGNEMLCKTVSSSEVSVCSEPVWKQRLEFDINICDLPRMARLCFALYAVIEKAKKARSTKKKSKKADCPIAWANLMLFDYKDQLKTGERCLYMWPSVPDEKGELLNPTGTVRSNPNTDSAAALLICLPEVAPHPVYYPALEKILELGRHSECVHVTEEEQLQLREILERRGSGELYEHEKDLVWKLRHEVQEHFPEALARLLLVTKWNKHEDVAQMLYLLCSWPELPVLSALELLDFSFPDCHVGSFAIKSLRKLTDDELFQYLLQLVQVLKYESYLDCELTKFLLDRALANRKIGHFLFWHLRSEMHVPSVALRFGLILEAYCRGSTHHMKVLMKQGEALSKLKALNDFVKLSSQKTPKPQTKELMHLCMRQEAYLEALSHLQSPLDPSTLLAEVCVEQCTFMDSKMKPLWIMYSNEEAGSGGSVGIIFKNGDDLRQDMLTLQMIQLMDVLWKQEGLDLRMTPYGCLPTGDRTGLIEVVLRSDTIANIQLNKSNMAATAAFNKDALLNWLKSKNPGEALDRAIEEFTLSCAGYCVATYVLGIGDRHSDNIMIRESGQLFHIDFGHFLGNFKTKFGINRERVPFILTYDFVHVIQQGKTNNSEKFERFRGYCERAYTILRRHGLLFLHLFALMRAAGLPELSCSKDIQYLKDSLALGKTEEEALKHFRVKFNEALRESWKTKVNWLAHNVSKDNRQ
T5 sequence (P27986 whole entry partner): as the sequence (P27986 whole entry partner) above
Description: as §1

mTOR = molecular target: T6, mTOR (Homo sapiens, UniProt P42345); assay: Kinase activity in cell-free assay (HotSpot); type: biochemical
T6 construct: purchased Reaction Biology Corp
Description: as §1

[1] = test system: ERK phosphorylation in LP1 and JJN3 cells; assay: ERK phosphorylation, immunoblotting; type: cell-based; details: increasing concentrations, 24 hrs
Description: To elucidate this specificity, we first evaluated its effects on IGF-1R because IGF-1R as a receptor tyrosine kinase activates PI3K in the presence of IGF-1. To exclude the potential effects of C96 on IGF-1 signaling, LP1 and JJN3 cells were starved overnight followed by C96 or S14161 treatment for 2 hrs, and IGF-1 stimulation for 15 min. As expected, IGF-1 triggered AKT phosphorylation but it was suppressed by both C96 and the proven PI3K inhibitor S14161 without affecting total AKT expression (Figure 3A). […] Next, we evaluated other kinases including non-receptor kinase c-Src and a PI3K parallel kinase ERK which transduces external cellular signals. Both LP1 and JJN3 cells were treated with C96 at increasing concentrations that inhibited AKT and mTOR activation (Figure 2C).
Figure 3 C96 inhibits AKT but not IGF-1R, ERK or c-Src kinase activation (A) LP1 and JJN3 cells were starved overnight, then treated with 100 (μM of C96 or S14161 for 2 hrs, followed by IGF-1 (100 ng/mL) for 15 min. After incubation, cells were harvested and the expression of p-AKT, p-IGF-1R, total AKT (T-AKT), and IGF-1R proteins were detected by immunoblotting. (B) LP1 and JJN3 were treated with C96 at indicated concentrations for 24 hrs followed by immunoblotting assay for the expression of p-Src, c-Src, p-ERK, and ERK. GAPDH was used as a loading control. […]

T1 sequence (P31751 whole entry): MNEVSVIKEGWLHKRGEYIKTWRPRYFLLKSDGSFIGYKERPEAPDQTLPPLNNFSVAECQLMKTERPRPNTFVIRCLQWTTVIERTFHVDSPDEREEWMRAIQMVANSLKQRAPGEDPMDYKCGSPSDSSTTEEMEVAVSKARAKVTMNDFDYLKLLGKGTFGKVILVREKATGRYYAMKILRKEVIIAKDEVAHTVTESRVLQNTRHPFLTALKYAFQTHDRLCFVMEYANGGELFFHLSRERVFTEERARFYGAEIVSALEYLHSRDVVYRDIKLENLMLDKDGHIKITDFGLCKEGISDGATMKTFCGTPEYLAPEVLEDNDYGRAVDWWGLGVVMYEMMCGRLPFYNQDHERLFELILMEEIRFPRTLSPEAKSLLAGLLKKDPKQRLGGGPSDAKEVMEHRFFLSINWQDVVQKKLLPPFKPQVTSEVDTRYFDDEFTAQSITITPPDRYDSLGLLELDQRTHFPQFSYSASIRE

## O=C1NC(=O)C(=CC=Cc2cccs2)C(=O)N1 [C96, 5-(3-(2-thienyl)-2-propen-1-ylidene)-2,4,6(1H,3H,5H)-pyrimidinetrione]
AKT2; 300 μM
  enzymatic activity AKT2: higher than 50%
AKT2; C96 1.11E-05 M
  AKT2 catalytic activity: 102.16%
AKT2; C96 1.23E-06 M
  AKT2 catalytic activity: 97.18%
AKT2; C96 1.37E-07 M
  AKT2 catalytic activity: 97.27%
AKT2; C96 1.52E-08 M
  AKT2 catalytic activity: 95.67%
AKT2; C96 3.00E-04 M
  AKT2 catalytic activity: 86.10%
AKT2; C96 3.33E-05 M
  AKT2 catalytic activity: 100.38%
AKT2; C96 3.70E-06 M
  AKT2 catalytic activity: 102.25%
AKT2; C96 4.12E-07 M
  AKT2 catalytic activity: 100.48%
AKT2; C96 4.57E-08 M
  AKT2 catalytic activity: 100.26%
AKT2; cell-free
  IC50 AKT2: not detectable
AKT3; 300 μM
  enzymatic activity AKT3: higher than 50%
AKT3; C96 1.00E-04 M
  AKT3 catalytic activity: 98.26%
AKT3; C96 1.11E-05 M
  AKT3 catalytic activity: 100.98%
AKT3; C96 1.23E-06 M
  AKT3 catalytic activity: 100.31%
AKT3; C96 1.37E-07 M
  AKT3 catalytic activity: 100.29%
AKT3; C96 1.52E-08 M
  AKT3 catalytic activity: 109.49%
AKT3; C96 3.00E-04 M
  AKT3 catalytic activity: 79.18%
AKT3; C96 3.33E-05 M
  AKT3 catalytic activity: 108.59%
AKT3; C96 3.70E-06 M
  AKT3 catalytic activity: 117.76%
AKT3; C96 4.12E-07 M
  AKT3 catalytic activity: 106.62%
AKT3; C96 4.57E-08 M
  AKT3 catalytic activity: 102.54%
AKT3; cell-free
  IC50 AKT3: not detectable
PI3Kα
  EC50: ~5 µM
  IC50: 5.41 µM
PI3Kβ
  IC50: 134 µM
PI3Kδ
  EC50: ~5 µM
  IC50: 7.05 µM
mTOR; 300 μM
  enzymatic activity mTOR: higher than 50%
mTOR; C96 1.00E-04 M
  mTOR catalytic activity: 101.78%
mTOR; C96 1.11E-05 M
  mTOR catalytic activity: 102.93%
mTOR; C96 1.23E-06 M
  mTOR catalytic activity: 99.81%
mTOR; C96 1.37E-07 M
  mTOR catalytic activity: 100.28%
mTOR; C96 1.52E-08 M
  mTOR catalytic activity: 96.95%
mTOR; C96 3.00E-04 M
  mTOR catalytic activity: 102.57%
mTOR; C96 3.33E-05 M
  mTOR catalytic activity: 100.02%
mTOR; C96 3.70E-06 M
  mTOR catalytic activity: 101.74%
mTOR; C96 4.12E-07 M
  mTOR catalytic activity: 99.37%
mTOR; C96 4.57E-08 M
  mTOR catalytic activity: 99.19%
mTOR; cell-free
  IC50 mTOR: not detectable
[1]
  phosphorylation level of ERK: did not decrease
